Where two headings read alike, the source gives them in different places.
Columns and labels:
[1] = Dynamic light scattering (DLS) of mRNA/peptoid formulations: particle size and polydispersity; format: physicochemical; conditions: Fluc mRNA/peptoid formulation; for Size PDI: size polydispersity index by DLS, 5:1 mass ratio; for Size (nm): volume average particle size/diameter by DLS, 5:1 mass ratio peptoid:cargo
Method: (§1) To prepare nanoparticle formulations, the amino lipidated peptoid is mixed by pipetting with nucleic acid at a mass ratio between approximately 1:1 (peptoid:cargo) and 20:1. Prior to formulation, amino lipidated peptoid and nucleic acid cargo were diluted in ethanol and acidic buffer (PBS adjusted to pH 5.5 with 0.1 M HCl) respectively to a volume ratio of 1:3 and to target a final cargo concentration of approximately 0.05 mg/mL to 0.2 mg/mL. The exemplary amino lipidated cationic peptoids described in Example 2 were combined with firefly luciferase (Fluc) mRNA to form nanoparticle compositions to be evaluated for therapeutic and/or prophylactic purposes in vitro or in vivo. The formulations were prepared according to the protocol of Example 3 and mixed by simple pipetting. The mRNA/peptoid formulation at a 5:1 mass ratio of peptoid:cargo were evaluated by dynamic light scattering (DLS) in order to determine the volume average particle size/diameter (nm) of the mRNA/peptoid complex and the size polydispersity index (PDI) within the formulation. The percentage of mRNA encapsulation for each formulation of the exemplary compounds were determined by fluorescence of the Qubit RNA HS (Invitrogen) dye before and after lysis of particles by Triton X-100.

[2] = mRNA encapsulation by fluorescence of Qubit RNA HS dye before and after lysis with Triton X-100; format: physicochemical; conditions: percentage of mRNA encapsulation; Fluc mRNA/peptoid formulation, 5:1 mass ratio
Method: as §1, with “The” for “To prepare nanoparticle formulations, the amino lipidated peptoid is mixed by pipetting with nucleic acid at a mass ratio between approximately 1:1 (peptoid:cargo) and 20:1. Prior to formulation, amino lipidated peptoid and nucleic acid cargo were diluted in ethanol and acidic buffer (PBS adjusted to pH 5.5 with 0.1 M HCl) respectively to a volume ratio of 1:3 and to target a final cargo concentration of approximately 0.05 mg/mL to 0.2 mg/mL. The”

HeLa cells [3] = assay: In vitro expression of firefly luciferase (Fluc) after treatment with Fluc mRNA/amino lipidated peptoid formulations, no PEG or 2% DMG-PEG2000; format: cell-based
Method: The efficacy of mRNA/amino lipidated peptoid formulations was evaluated in vitro based on their ability to deliver the firefly luciferase (Fluc) reporter gene to cultured cells. Amino lipidated peptoids were combined with Fluc mRNA at a 5:1 w/w ratio, and the resulting particles were added to cultured HeLa cells at a dose of 100 ng/well (in 100 μL total volume). The resulting luciferase expression (RLU) was measured by a luminescence plate reader after 6 hours and 24 hours of treatment. […] In addition to evaluating nanoparticle complexes formed between mRNA cargos and amino lipidated peptoids alone, multicomponent formulations containing a small amount of PEG-lipid DMG-PEG2000 were also tested for in vitro Fluc mRNA delivery. In these formulations, DMG-PEG2000 was pre-mixed with candidate peptoid at an overall 2% incorporation (w/w), while maintaining the same 5:1 mass ratio of peptoid:mRNA used previously.

HeLa cells [4] = assay: In vitro Fluc expression with variable peptoid:mRNA mass ratio, 2% DMG-PEG2000; format: cell-based; conditions: 24 h; for Observed Luciferase Expression (RLU) for Given Formulation Mass Ratio 2:1: 2% (w/w) DMG-PEG2000, peptoid:mRNA 2:1; for Observed Luciferase Expression (RLU) for Given Formulation Mass Ratio 3.5:1: 2% (w/w) DMG-PEG2000, peptoid:mRNA 3.5:1; for Observed Luciferase Expression (RLU) for Given Formulation Mass Ratio 5:1: 2% (w/w) DMG-PEG2000, peptoid:mRNA 5:1; for Observed Luciferase Expression (RLU) for Given Formulation Mass Ratio 7.5:1: 2% (w/w) DMG-PEG2000, peptoid:mRNA 7.5:1
Method: The charge ratio dependence of amino lipidated peptoid delivery vehicles was evaluated by formulating particles between Fluc mRNA and delivery vehicles at varying mass ratios. Formulations were varied between 2:1 and 7.5:1 peptoid:mRNA (w/w) ratios (2:1, 3.5:1, 5:1 and 7.5:1). In addition, the role of DMG-PEG2000 was also explored with the mass ratios, either by excluding DMG-PEG2000 or incorporating DMG-PEG2000 at 2% (w/w) relative to amino lipidated peptoid. Fluc expression from these formulations was measured in HeLa cells following treatment for 24 hours. […] FIGS. 6B and 6C show plots of the average bioluminescence (RLU) for HeLa cells treated with the formulations of exemplary amino lipidated cationic peptoid compounds 1-36, all formulated with 2% w/w DMG-PEG2000.

[5] = MTT viability assay after treatment with Fluc mRNA/amino lipidated peptoid formulations; format: cell-based; conditions: human, HeLa cells
Method: Cellular viability was measured following treatment with Fluc mRNA/amino lipidated peptoid formulations by a traditional MTT viability assay. […] In this assay, cells were first treated with peptoid formulations at a final mRNA concentration of 100 ng/well for 8 hours. Cells were then left to grow for 48 hours, after which time they were exposed to 1.5 mg/mL 3-(4,5-dimethylthiazol-2-yl)-2,5-diphenyltetrazolium bromide (MTT) for 2 hours, then lysed using a solubilizing solution of 10% Triton-X 100 in acidic isopropanol (0.1N HCl). The signal corresponding to reduced formazan was normalized to untreated cells to provide a relative viability of each treated condition. […] In general, nearly all conditions maintained at least 80% viability with the only exceptions being formulations of compound 5, 34, and 35.

[6] = no PEG, peptoid:Fluc mRNA 5:1 w/w, 100 ng/well, 6 h of treatment
[7] = no PEG, peptoid:Fluc mRNA 5:1 w/w, 100 ng/well, 24 h of treatment
[8] = with 2% (w/w) DMG-PEG2000, peptoid:mRNA 5:1, 6 h after treatment
[9] = with 2% (w/w) DMG-PEG2000, peptoid:mRNA 5:1, 24 h after treatment
[10] = MTT, 2% (w/w) DMG-PEG2000, 5:1 mass ratio, 100 ng/well mRNA for 8 h then 48 h growth, normalized to untreated cells, read-out: Relative Viability (%) 2% PEG
[11] = MTT, formulation alone (no PEG), 5:1 mass ratio, 100 ng/well mRNA for 8 h then 48 h growth, normalized to untreated cells, read-out: Relative Viability (%) No PEG

Row | Structure (SMILES) | Size PDI [1] | Size (nm) [1] | % Encapsulation [2] | Luciferase Expression (RLU) 6 h (HeLa cells [3]; [6]) | Luciferase Expression (RLU) 24 h (HeLa cells [3]; [7]) | Luciferase Expression (RLU) 6 h (HeLa cells [3]; [8]) | Luciferase Expression (RLU) 24 h (HeLa cells [3]; [9]) | Observed Luciferase Expression (RLU) for Given Formulation Mass Ratio 2:1 (HeLa cells [4]) | Observed Luciferase Expression (RLU) for Given Formulation Mass Ratio 3.5:1 (HeLa cells [4]) | Observed Luciferase Expression (RLU) for Given Formulation Mass Ratio 5:1 (HeLa cells [4]) | Observed Luciferase Expression (RLU) for Given Formulation Mass Ratio 7.5:1 (HeLa cells [4]) | viability at 8 h, 500 ng/well [5, 10] | viability at 8 h, 500 ng/well [5, 11] | viability at 8 h, 500 ng/well ([5]; Relative Viability (%) 2% PEG) | viability at 8 h, 500 ng/well ([5]; Relative Viability (%) No PEG) | viability at 8 h, 500 ng/well ([5]; viability)
1 | CCCCCCCCCCN(CC(N)=O)C(=O)CN(CCCCCCCCCC)C(=O)CN(CCCCCCCCCC)C(=O)CN(CCc1ccccc1)C(=O)CN(CCc1ccccc1)C(=O)CN(CCN)C(=O)CN(CCc1ccccc1)C(=O)CN(CCc1ccccc1)C(=O)CN(CCN)C(=O)CN(CCc1ccccc1)C(=O)CN(CCc1ccccc1)C(=O)CNCCN [Compound 7] | 0.177 | 296.7 nm | 88.4% | 6.45E+03 RLU | 9.71E+03 RLU | 2.77E+03 RLU | 1.81E+03 RLU | 1.61E+04 RLU | 1.43E+04 RLU | 2.20E+04 RLU | 5.92E+03 RLU | 96% | 78% | – | – | –
2 | CCCCCCCCCCN(CC(N)=O)C(=O)CN(CCCCCCCCCC)C(=O)CN(CCN)C(=O)CN(CCN)C(=O)CN(CCN)C(=O)CN(CCN)C(=O)CNCCN [Compound 15] | 1 | 1064 nm | 76.9% | 3.93E+01 RLU | 1.90E+01 RLU | 5.33E+00 RLU | 5.33E+00 RLU | 8.85E+01 RLU | 3.62E+01 RLU | 2.01E+01 RLU | 6.70E+00 RLU | – | – | 91.9% | 91.2% | –
3 | CCCCCCCCCCCCCCCCCCN(CC(N)=O)C(=O)CN(CCCCCCCCCCCCCCCCCC)C(=O)CN(CCc1ccccc1)C(=O)CN(CCc1ccccc1)C(=O)CN(CCN)C(=O)CN(CCc1ccccc1)C(=O)CN(CCc1ccccc1)C(=O)CN(CCN)C(=O)CN(CCc1ccccc1)C(=O)CN(CCc1ccccc1)C(=O)CNCCN [Compound 5] | 0.308 | 364.7 nm | 88.3% | 9.60E+01 RLU | 5.36E+02 RLU | 3.46E+02 RLU | 1.22E+02 RLU | 5.81E+02 RLU | 1.15E+03 RLU | 9.21E+02 RLU | 1.14E+03 RLU | – | – | 91.2% | 56.8% | < 80%
4 | CCCCCCCCCCN(CC(=O)N(CCN)CC(=O)N(CCc1ccccc1)CC(=O)N(CCc1ccccc1)CC(=O)N(CCCCCCCCCC)CC(=O)N(CCN)CC(=O)N(CCc1ccccc1)CC(=O)N(CCc1ccccc1)CC(N)=O)C(=O)CN(CCc1ccccc1)C(=O)CN(CCc1ccccc1)C(=O)CNCCN [Compound 17] | 0.37 | 472.8 nm | 90.3% | 6.84E+02 RLU | 5.63E+02 RLU | 8.67E+01 RLU | 1.80E+02 RLU | 2.72E+03 RLU | 1.56E+03 RLU | 1.60E+03 RLU | 3.75E+01 RLU | – | – | 91.7% | 88% | –
5 | CCCCCCCCCCN(CC(N)=O)C(=O)CN(CCCCCCCCCC)C(=O)CN(CCc1ccccc1)C(=O)CN(CCc1ccccc1)C(=O)CNCCN [Compound 9] | 0.122 | 367.9 nm | 73.9% | 1.52E+02 RLU | 8.57E+01 RLU | 1.38E+02 RLU | 3.33E+01 RLU | 2.28E+02 RLU | 3.67E+02 RLU | 9.91E+02 RLU | 1.82E+02 RLU | – | – | 107% | 99.3% | –
6 | CCCCCCCCCCN(CC(N)=O)C(=O)CN(CCc1ccccc1)C(=O)CN(CCc1ccccc1)C(=O)CN(CCN)C(=O)CN(CCc1ccccc1)C(=O)CN(CCc1ccccc1)C(=O)CN(CCN)C(=O)CN(CCc1ccccc1)C(=O)CN(CCc1ccccc1)C(=O)CNCCN [Compound 6] | 0.348 | 448.6 nm | 92.4% | 4.30E+01 RLU | 3.60E+01 RLU | 1.38E+02 RLU | 2.13E+01 RLU | 8.18E+01 RLU | 8.18E+01 RLU | 6.97E+01 RLU | 4.56E+01 RLU | 88.9% | 88% | – | – | –
7 | CCCCCCCCCCN(CC(N)=O)C(=O)CN(CCCCCCCCCC)C(=O)CN(CCN)C(=O)CN(CCN)C(=O)CN(CCN)C(=O)CN(CCN)C(=O)CN(CCN)C(=O)CN(CCN)C(=O)CN(CCN)C(=O)CN(CCN)C(=O)CNCCN [Compound 16] | 1 | 1486 nm | 85.4% | 7.33E+00 RLU | 1.67E+01 RLU | 2.63E+01 RLU | 5.00E+00 RLU | 1.01E+02 RLU | 4.16E+01 RLU | 2.55E+01 RLU | 1.47E+01 RLU | – | – | 90.8% | 89.4% | –

Reference: patent US20220323594A1, “LIPIDATED CATIONIC PEPTIDE-PEG COMPOSITIONS FOR NUCLEIC ACID DELIVERY” (NUTCRACKER THERAPEUTICS, INC., priority 2019, published 2022)
